Results reported in article PMC9953885 (Biosensors, 2023).
Counter-ions that a name gives are not always drawn.

Target: T1, human pancreatic lipase (hPL) (Homo sapiens, UniProt P16233)
T1 construct: gene PNLIP
T1 sequence (P16233 17-465): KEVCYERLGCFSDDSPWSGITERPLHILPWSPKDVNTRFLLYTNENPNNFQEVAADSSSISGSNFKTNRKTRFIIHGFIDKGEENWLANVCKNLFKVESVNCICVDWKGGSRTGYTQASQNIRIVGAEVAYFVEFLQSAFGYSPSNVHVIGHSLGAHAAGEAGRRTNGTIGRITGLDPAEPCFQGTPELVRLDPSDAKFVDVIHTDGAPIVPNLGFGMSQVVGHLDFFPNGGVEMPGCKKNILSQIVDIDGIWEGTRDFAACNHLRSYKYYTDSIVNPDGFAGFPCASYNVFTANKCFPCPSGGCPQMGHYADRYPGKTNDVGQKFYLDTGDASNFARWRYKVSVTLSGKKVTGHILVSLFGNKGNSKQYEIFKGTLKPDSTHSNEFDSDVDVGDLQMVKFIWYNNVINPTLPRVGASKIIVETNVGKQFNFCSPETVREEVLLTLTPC
Details: 10 µM; inhibitor
Protocol: First, we evaluated the inhibitory effect of 94 natural products derived from herbs and 94 drugs on hPL. In our high-throughput screening system, 1 ug/mL hPL was used, and the final concentration of the 94 natural products derived from herbs and 94 drugs used was 10 μM. Other conditions were the same as in the selectivity experiments. […] RLE was incubated with hPL and various enzymes, such as hCES1A, hCES2A, CA, AchE, BchE, 5-HKE, lysozyme, trypsin, thrombin, α-CT, FAP, PREP, pepsin, α-amylase, plasmin, notum and hSA, in a 100 µL incubation mixture consisting of Tris-HCl (pH = 7.4, 25 mM), NaCl (150 mM), CaCl2 (1 mM) and porcine bile salt (0.1 mg/mL) at a concentration of 1.5 µg/mL. The reaction was initiated by adding RLE to the preincubated enzyme mixture at 37 °C, and metabolite formation was determined by measuring the fluorescence intensity of resorufin at 590 nm. In addition, several amino acids (IIe, His, Trp, Val, Leu, Tyr, Ala, Thr, Pro, Asp, Lys, Met, Cys, Ser, Phe, Gly, Glu and Gln), ions (Ni^2+, Ca^2+, Na^+, K^+, Cu^2+, Zn^2+, Mg^2+, NH4^+, Cu^+, Fe^2+ and CN^-) and GSH were measured. The concentration of these interfering factors was 5 μM. […] In this case, a visual high-throughput assay was established to screen hPL inhibitors, using RLE as a fluorogenic substrate in a 96-well microplate.

Row | Compound | % of control remaining
1 | COc1ccc(-c2coc3cc(O)ccc3c2=O)cc1 [Formononetin] | 104.25%
2 | NS(=O)(=O)c1cc(C(=O)O)c(NCc2ccco2)cc1Cl [Furosemide] | 100.00%
3 | Nc1ccn([C@@H]2O[C@H](CO)[C@@H](O)C2(F)F)c(=O)n1 [Gemcitabine] | 105.06%
4 | COC(=O)C1=CO[C@@H](O)[C@@H]2C(CO)=CC[C@H]12 [Genipin] | 99.28%
5 | O=c1c(-c2ccc(O)cc2)coc2cc(O)cc(O)c12 [Genistein] | 106.48%
6 | C#C[C@]1(O)CC[C@H]2[C@@H]3CCC4=CC(=O)CCC4=C3C=C[C@@]21CC [Gestrinone] | 66.72%
7 | COc1cc(O)c2c(=O)cc(-c3ccc(OC)c(-c4c(O)cc(O)c5c(=O)cc(-c6ccc(O)cc6)oc45)c3)oc2c1 [Ginkgetin] | 39.42%
8 | C[C@@H]1C(=O)O[C@H]2C[C@@]34[C@H]5C[C@@H](C(C)(C)C)[C@]36[C@@H](OC(=O)[C@@H]6O)O[C@@]4(C(=O)O5)[C@]21O [Ginkgolide A] | 125.97%
9 | C[C@@H]1C(=O)O[C@H]2[C@H](O)[C@@]34[C@H]5C[C@@H](C(C)(C)C)[C@]36[C@@H](OC(=O)[C@@H]6O)O[C@@]4(C(=O)O5)[C@@]12O [Ginkgolide B] | 120.07%
10 | C[C@@H]1C(=O)O[C@H]2[C@H](O)[C@@]34O[C@@H]5OC(=O)[C@H](O)[C@@]56[C@H](C(C)(C)C)[C@H](O)C(OC3=O)[C@]64[C@@]12O (stereo partly drawn) [Ginkgolide C] | 106.22%
11 | CCC1=C(C)CN(C(=O)NCCc2ccc(S(=O)(=O)NC(=O)N[C@H]3CC[C@H](C)CC3)cc2)C1=O [Glimepiride] | 90.05%
12 | COc1cc2c(=O)c(-c3ccc(O)cc3)coc2cc1O[C@@H]1O[C@H](CO)[C@@H](O)[C@H](O)[C@H]1O [Glycitin] | 99.85%
13 | O=c1c(O)c(-c2ccc(O)cc2)oc2c(O)c(O)cc(O)c12 [Herbacetin] | 83.59%
14 | COC(=O)C[C@](O)(CCCC(C)(C)O)C(=O)O[C@@H]1C(OC)=C[C@]23CCCN2CCc2cc4c(cc2[C@H]13)OCO4 [Homoharringtonine] | 74.77%
15 | NS(=O)(=O)c1cc2c(cc1Cl)NCNS2(=O)=O [Hydrochlorothiazide] | 99.42%
16 | C[C@]12CCC(=O)C=C1CC[C@@H]1[C@@H]2[C@@H](O)C[C@@]2(C)[C@H]1CC[C@]2(O)C(=O)CO [Hydrocortisone] | 56.27%
17 | O=C1C([C@@H]2O[C@H](CO)[C@@H](O)[C@H](O)[C@H]2O)=C(O)/C(=C(O)/C=C/c2ccc(O)cc2)C(=O)C1(O)[C@@H]1O[C@H](CO)[C@@H](O)[C@H](O)[C@H]1O (stereo partly drawn) [Hydroxysafflor yellow A] | 76.59%
18 | CC(C)Cc1ccc(C(C)C(=O)O)cc1 (stereo not drawn) [Ibuprofen] | 103.68%
19 | CN(C)CCCN1c2ccccc2CCc2ccccc21 [Imipramine hydrochloride] | 92.51%

Row | Compound | % of control remaining
20 | CC(C)=CCOc1c2occc2cc2ccc(=O)oc12 [Imperatorin] | 75.61%
21 | COc1ccc2c(c1)c(CC(=O)O)c(C)n2C(=O)c1ccc(Cl)cc1 [Indometacin] | 102.95%
22 | CC(C)Oc1ccc2c(=O)c(-c3ccccc3)coc2c1 [Ipriflavone] | 84.50%
23 | CCc1c2c(nc3ccc(OC(=O)N4CCC(N5CCCCC5)CC4)cc13)-c1cc3c(c(=O)n1C2)COC(=O)[C@]3(O)CC [Irinotecan] | 105.25%
24 | COc1cc(-c2coc3cc4c(c(OC)c3c2=O)OCO4)cc(OC)c1OC [Irisflorentin] | 66.38%
25 | C=C1C(=O)O[C@@H]2C[C@@]3(C)CCCC(=C)[C@@H]3C[C@H]12 [Isoalantolactone] | 70.02%
26 | COc1ccc(-c2cc(=O)c3c(O)cc(O)c(-c4cc(-c5cc(=O)c6c(O)cc(O)cc6o5)ccc4OC)c3o2)cc1 [Isoginkgetin] | 54.78%
27 | CC(C)=CCOc1c2ccoc2cc2oc(=O)ccc12 [Isoimperatorin] | 72.90%
28 | COc1cc(-c2oc3cc(O)cc(O)c3c(=O)c2O[C@@H]2O[C@H](CO)[C@@H](O)[C@H](O)[C@H]2O)ccc1O [Isorhamnetin-3-glucoside] | 93.93%
29 | CC[C@H]1CN2CC[C@@]3(C(=O)Nc4ccccc43)[C@@H]2C[C@@H]1/C(=C\OC)C(=O)OC [Isorhynchophylline] | 87.99%
30 | O=c1cc(-c2ccc(O)cc2)oc2cc(O)c([C@@H]3O[C@H](CO)[C@@H](O)[C@H](O)[C@H]3O)c(O)c12 [Isovitexin] | 79.86%
31 | C[C@@H]1CC[C@@]2(NC1)O[C@H]1C[C@H]3[C@@H]4CC=C5C[C@@H](O[C@@H]6O[C@H](CO)[C@@H](O[C@@H]7O[C@@H](C)[C@H](O)[C@@H](O)[C@H]7O)[C@H](O)[C@H]6O)CC[C@]5(C)[C@H]4CC[C@]3(C)[C@H]1[C@@H]2C [Khasianine] | 102.50%
32 | Nc1nnc(-c2cccc(Cl)c2Cl)c(N)n1 [Lamotrigine] | 84.88%
33 | COc1c(/C=C/C(=O)c2ccc(O)cc2)ccc(O)c1O [Licochalcone B] | 58.04%
34 | COc1c(/C=C/C(=O)c2ccc(O)c(CC=C(C)C)c2)ccc(O)c1O [Licochalcone D] | 80.45%
35 | CC1(C)O[C@H]2CC(=O)OC[C@]23[C@H]2CC[C@@]4(C)[C@H](c5ccoc5)OC(=O)[C@H]5O[C@]54[C@]2(C)C(=O)C[C@@H]13 [Limonin] | 85.30%
36 | CC#CCn1c(N2CCC[C@@H](N)C2)nc2c1c(=O)n(Cc1nc(C)c3ccccc3n1)c(=O)n2C [Linagliptin] | 108.93%
37 | CC(=O)NC[C@H]1CN(c2ccc(N3CCOCC3)c(F)c2)C(=O)O1 [Linezolid] | 91.81%
38 | O=C1C[C@@H](c2ccc(O[C@@H]3O[C@H](CO)[C@@H](O)[C@H](O)[C@H]3O)cc2)Oc2cc(O)ccc21 [Liquiritin] | 105.77%

Row | Compound | % of control remaining
39 | CCOC(=O)N1CCC(=C2c3ccc(Cl)cc3CCc3cccnc32)CC1 [Loratadine] | 96.14%
40 | COc1ccc(CCC(=O)c2ccc(O)cc2)c(OC)c1 [Loureirin A] | 67.52%
41 | COc1cc(OC)c(CCC(=O)c2ccc(O)cc2)c(OC)c1 [Loureirin B] | 79.89%
42 | CC[C@H](C)C(=O)O[C@H]1C[C@@H](C)C=C2C=C[C@H](C)[C@H](CC[C@@H]3C[C@@H](O)CC(=O)O3)[C@H]21 [Lovastatin] | 80.96%
43 | COc1ccc(-c2cc(=O)c3c(O)c(OC)c(O)c(OC)c3o2)cc1 [Lysionotin] | 84.30%
44 | CC(=O)O[C@]1(C(C)=O)CC[C@H]2[C@@H]3C[C@H](C)C4=CC(=O)CC[C@]4(C)[C@H]3CC[C@@]21C [Medroxyprogesterone Acetate] | 68.77%
45 | Cc1coc2c1CCC(C)C2 (stereo not drawn) [Menthofuran] | 108.33%
46 | COC(=O)/C=C/c1ccc(O)c(O)c1 [Methyl caffeate] | 72.74%
47 | Cc1c(O)c(C)c2c(c1O)C(=O)[C@H](Cc1ccc3c(c1)OCO3)CO2 [Methylophiopogonanone A] | 80.44%
48 | COCCc1ccc(OCC(O)CNC(C)C)cc1 (stereo not drawn) [Metoprolol tartrate] | 135.23%
49 | Cc1ncc([N+](=O)[O-])n1CCO [Metronidazole] | 78.49%
50 | Cc1ncc2n1-c1ccc(Cl)cc1C(c1ccccc1F)=NC2 [Midazolam] | 96.73%
51 | O=c1c(O)c(-c2ccc(O)cc2O)oc2cc(O)cc(O)c12 [Morin hydrate] | 96.10%
52 | O=c1c(O)c(-c2cc(O)c(O)c(O)c2)oc2cc(O)cc(O)c12 [Myricetin] | 56.43%
53 | C[C@@H]1O[C@@H](Oc2c(-c3cc(O)c(O)c(O)c3)oc3cc(O)cc(O)c3c2=O)[C@H](O)[C@H](O)[C@H]1O [Myricitrin] | 91.12%
54 | COc1ccc2cc([C@H](C)C(=O)O)ccc2c1 [Naproxen] | 116.02%
55 | COCCOC(=O)C1=C(C)NC(C)=C(C(=O)OC(C)C)C1c1cccc([N+](=O)[O-])c1 (stereo not drawn) [Nimodipine] | 98.69%
56 | COC(=O)C1=C(C)NC(C)=C(C(=O)OCC(C)C)C1c1ccccc1[N+](=O)[O-] (stereo not drawn) [Nisoldipine] | 75.08%
57 | CCOC(=O)C1=C(C)NC(C)=C(C(=O)OC)C1c1cccc([N+](=O)[O-])c1 (stereo not drawn) [Nitrendipine] | 92.86%
